# Assay results taken from the supplement of paper PMC10307832.
# What was measured:
# Test in all cases: relative viability (nuclei count vs DMSO), 5 days (fraction); higher = more cells survive
# [1] = compound: CS(=O)(=O)N1CCN(Cc2cc3nc(-c4cccc5[nH]ncc45)nc(N4CCOCC4)c3s2)CC1 [Pictilisib] + COc1cc2c(Oc3ccc(NC(=O)C4(C(=O)Nc5ccc(F)cc5)CC4)cc3F)ccnc2cc1OCCCN1CCOCC1 [Foretinib] (partner 0.25 µM)
# Outline: (§1)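 Relative viability equals treated-well nuclei counts divided by vehicle-well nuclei counts. Counts came from 4× images of lung cancer cell lines grown in 1536-well plates for 5 days after pin-tool dosing on the day after seeding. Dosing used one drug alone or a fixed anchor-drug dose plus five library-drug doses (not always all listed) in √10 steps, and values are medians of duplicate plates.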
# [2] = compound: NC1(c2ccc(-c3nc4ccn5c(=O)[nH]nc5c4cc3-c3ccccc3)cc2)CCC1 [MK-2206] + NC(=O)Nc1cc(-c2cccc(F)c2)sc1C(=O)N[C@H]1CCCNC1 [AZD7762] (partner 0.2 µM)
# Outline: as §1
# [3] = compound: NC1(c2ccc(-c3nc4ccn5c(=O)[nH]nc5c4cc3-c3ccccc3)cc2)CCC1 [MK-2206] + Cc1nc(Nc2ncc(C(=O)Nc3c(C)cccc3Cl)s2)cc(N2CCN(CCO)CC2)n1 [Dasatinib] (partner 0.075 µM)
# Outline: as §1
# [4] = compound: CS(=O)(=O)N1CCN(Cc2cc3nc(-c4cccc5[nH]ncc45)nc(N4CCOCC4)c3s2)CC1 [Pictilisib] + NC(=O)Nc1cc(-c2cccc(F)c2)sc1C(=O)N[C@H]1CCCNC1 [AZD7762] (partner 0.2 µM)
# Outline: as §1
# [5] = compound: CS(=O)(=O)N1CCN(Cc2cc3nc(-c4cccc5[nH]ncc45)nc(N4CCOCC4)c3s2)CC1 [Pictilisib] + O=C(CCCCCCC(=O)Nc1ccccc1)NO [Vorinostat] (partner 1 µM)
# Outline: as §1
Cell Line,relative viability ([1]; first compound 0.02 µM),relative viability ([1]; first compound 0.06325 µM),relative viability ([1]; first compound 0.6325 µM),relative viability ([1]; first compound 2 µM),relative viability ([2]; first compound 0.01 µM),relative viability ([2]; first compound 0.03162 µM),relative viability ([2]; first compound 0.3162 µM),relative viability ([2]; first compound 1 µM),relative viability ([3]; first compound 0.01 µM),relative viability ([3]; first compound 0.3162 µM),relative viability ([3]; first compound 1 µM),relative viability ([4]; first compound 0.02 µM),relative viability ([4]; first compound 0.06325 µM),relative viability ([4]; first compound 0.6325 µM),relative viability ([4]; first compound 2 µM),relative viability ([5]; first compound 0.02 µM),relative viability ([5]; first compound 0.06325 µM),relative viability ([5]; first compound 0.6325 µM),relative viability ([5]; first compound 2 µM),relative viability ([3]; first compound 0.03162 µM)
HCC-78,0.488,0.5,0.392,0.308,0.66,0.608,0.624,0.538,0.511,0.373,0.227,0.569,0.559,0.395,0.233,0.393,0.384,0.322,0.257,–
NCI-H358,0.749,0.763,0.548,0.274,0.628,0.423,0.552,0.609,0.169,0.15,0.147,0.542,0.521,0.335,0.267,0.816,0.693,0.603,0.264,0.167
H3255,0.813,0.884,0.571,0.494,0.865,0.883,0.903,0.829,0.347,0.288,0.284,0.814,0.8,0.832,0.578,0.813,0.779,0.788,0.414,0.344
LOU-NH91,0.73,0.886,0.834,0.738,0.8,0.751,0.705,0.605,0.628,0.571,0.375,0.803,0.718,0.567,0.495,1.09,0.901,0.797,0.651,0.638
NCI-H1666,0.987,0.968,0.914,0.66,0.808,0.858,0.962,0.806,0.751,0.818,0.744,0.814,0.763,0.804,0.532,1.09,1.03,0.916,0.867,0.838
NCI-H2342,0.991,1.02,0.805,0.539,0.527,0.478,0.423,0.376,0.369,0.282,0.276,0.444,0.515,0.34,0.414,0.672,0.814,0.695,0.529,0.296
NCI-H838,0.973,0.895,0.929,0.45,0.935,0.872,0.969,0.906,0.282,0.288,0.268,0.906,0.747,0.928,0.809,0.731,0.632,0.648,0.53,0.279
